Read-outs that look alike come from different tables or passages of the source.
Columns and labels:
Type in all cases: in vivo
[1] = tested on: Spodoptera littoralis (Egyptian Cotton Leaf Worm); experiment: Spodoptera littoralis feeding/contact activity; settings: foliar, 72 h, read-out: control in at least one of the three categories (mortality or growth inhibition or anti-feeding)
Method: (§1) Cotton leaf discs were placed onto agar in 24-well microtiter plates and sprayed with aqueous test solutions prepared from 10,000 ppm DMSO stock solutions. After drying the leaf discs were infested with five L1 larvae. The samples were assessed for mortality, anti-feeding and growth inhibition 3 days after infestation.

[2] = tested on: Plutella xylostella (Diamond Back Moth); experiment: Plutella xylostella feeding/contact activity, 24-well artificial diet; settings: 192 h, read-out: control in at least one of the two categories (mortality or growth inhibition)
Method: 24-well microtiter plates with artificial diet were treated with aqueous test solutions prepared from 10,000 ppm DMSO stock solutions by pipetting. After drying, Plutella eggs were pipetted through a plastic stencil onto a gel blotting paper and the plate was closed with it. The samples were assessed for mortality and growth inhibition in comparison to untreated samples 8 days after infestation.

[3] = tested on: Diabrotica balteata (corn root worm); experiment: Diabrotica balteata (corn root worm), sprayed maize sprouts; settings: 96 h, read-out: control in at least one of the two categories (mortality or growth inhibition)
Method: Maize sprouts placed onto an agar layer in 24-well microtiter plates were treated with aqueous test solutions prepared from 10,000 ppm DMSO stock solutions by spraying. After drying, the plates were infested with L2 larvae (6 to 8 per well). The samples were assessed for mortality and growth inhibition in comparison to untreated samples 4 days after infestation.

[4] = tested on: Thrips tabaci (Onion thrips); experiment: Thrips tabaci feeding/contact activity; settings: foliar, 144 h, read-out: control in at least one of the two categories (mortality or anti-feeding)
Method: as §1, with “Sunflower” for “Cotton”, “on” for “onto”, “a thrips population of mixed ages.” for “five L1 larvae.”, “mortality, and” for “mortality,”, “6” for “and growth inhibition 3”

[5] = tested on: Plutella xylostella (Diamond Back Moth); experiment: Plutella xylostella feeding/contact activity, 96-well artificial diet; settings: 216 h, application rate 500 ppm, 9 days after infestation
Method: 1, 2, 3, 4, 17, 19, 23, 26, 39, 41, 42, 54, 55, 56 Plutella xylostella (Diamond Back Moth):Feeding/Contact Activity 96-well microtiter plates containing artificial diet were treated with aqueous test solutions, prepared from 10,000 ppm DMSO stock solutions, by a liquid handling robot. After drying, eggs (˜30 per well) were infested onto a netted lid which was suspended above the diet. The eggs hatch and L1 larvae move down to the diet. The samples were assessed for mortality 9 days after infestation.

[6] = tested on: Euschistus heros (Neotropical Brown Stink Bug); experiment: Euschistus heros feeding/contact activity; settings: 120 h, read-out: control in at least one of the two categories (mortality or growth inhibition)
Method: Soybean leaves on agar in 24-well microtiter plates were sprayed with aqueous test solutions prepared from 10,000 ppm DMSO stock solutions. After drying the leaves were infested with N2 nymphs. The samples were assessed for mortality and growth inhibition 5 days after infestation.

[7] = tested on: Myzus persicae (Green Peach Aphid); experiment: Myzus persicae feeding activity (sucrose solution, Parafilm); settings: 120 h, test rate 12.5 ppm, in sucrose solution, 5 days after infestation
Method: Test compounds prepared from 10,000 ppm DMSO stock solutions were applied by pipette into 24-well microtiter plates and mixed with sucrose solution. The plates were closed with a stretched Parafilm. A plastic stencil with 24 holes was placed onto the plate and infested pea seedlings were placed directly on the Parafilm. The infested plate was closed with a gel blotting paper and another plastic stencil and then turned upside down. The samples were assessed for mortality 5 days after infestation.

[8] = tested on: Spodoptera littoralis (Egyptian Cotton Leaf Worm); experiment: Spodoptera littoralis systemic activity (lettuce); settings: 144 h, test rate 12.5 ppm, root uptake in lettuce, 6 days after infestation, read-out: control in at least one of the three categories (mortality or growth inhibition or anti-feeding)
Excerpt: Test compounds were applied by pipette prepared from 10,000 ppm DMSO stock solutions into 24-well plates and mixed with agar. Lettuce seeds were placed onto the agar and the multi well plate was closed by another plate which contained also agar. After 7 days the compound was absorbed by the roots and the lettuce grew into the lid plate. The lettuce leaves were then cut off into the lid plate. Spodoptera eggs were pipetted through a plastic stencil onto a humid gel blotting paper and the lid plate was closed with it. The samples were assessed for mortality, anti-feeding and growth inhibition 6 days after infestation.

[9] = tested on: Myzus persicae (Green Peach Aphid); experiment: Myzus persicae systemic activity; settings: 144 h, test rate 24 ppm, roots of pea seedlings in test solution, 6 days
Method: Roots of pea seedlings infested with an aphid population of mixed ages were placed directly into aqueous test solutions prepared from 10,000 DMSO stock solutions. The samples were assessed for mortality 6 days after placing seedlings into test solutions.

[10] = tested on: Myzus persicae (Green Peach Aphid); experiment: Myzus persicae feeding/contact activity; settings: foliar, 144 h, application rate 200 ppm, sunflower leaf discs sprayed, 6 days after infestation
Method: Sunflower leaf discs were placed onto agar in a 24-well microtiter plate and sprayed with aqueous test solutions prepared from 10,000 ppm DMSO stock solutions. After drying, the leaf discs were infested with an aphid population of mixed ages. The samples were assessed for mortality 6 days after infestation.

[11] = application rate 200 ppm, L1 larvae on cotton leaf discs, 3 days after infestation
[12] = application rate 200 ppm, 24-well artificial diet, 8 days after infestation
[13] = application rate 200 ppm, L2 larvae, 4 days after infestation
[14] = application rate 200 ppm, sunflower leaf discs, 6 days after infestation
[15] = application rate 200 ppm, N2 nymphs on soybean leaves, 5 days after infestation

C[C@@H](c1ncnn1-c1ncccn1)N(C)C(=O)c1cc(C(F)(F)F)cc(C(F)(F)F)c1 [Compound 6]
≥ 80%: percent control (mortality, anti-feedant effect or growth inhibition) at 200 ppm [1, 11] | percent control (mortality or growth inhibition) at 200 ppm [2, 12] | percent control (mortality or growth inhibition) at 200 ppm [3, 13]

COC(=O)c1nc(C(C)NC(=O)c2cc(C(F)(F)F)cc(C(F)(F)F)c2)n(-c2ncccn2)n1 (stereo not shown) [Compound 7]
≥ 80%: percent control (mortality, anti-feedant effect or growth inhibition) at 200 ppm [4, 14] | percent control (mortality, anti-feedant effect or growth inhibition) at 200 ppm [1, 11] | mortality at 500 ppm [5] | percent control (mortality or growth inhibition) at 200 ppm [2, 12] | percent control (mortality or growth inhibition) at 200 ppm [3, 13]

CCOC(OCC)c1nc(C(C)NC(=O)c2cc(C(F)(F)F)cc(C(F)(F)F)c2)n(-c2ncccn2)n1 (stereo not shown) [Compound 8]
≥ 80%: mortality at 500 ppm [5] | percent control (mortality or growth inhibition) at 200 ppm [2, 12] | percent control (mortality or growth inhibition) at 200 ppm [3, 13]

CC(c1ncnn1-c1ncccn1)N(C[Si](C)(C)C)C(=O)c1cc(C(F)(F)F)cc(C(F)(F)F)c1 (stereo not shown) [Compound 16]
≥ 80%: percent control (mortality, anti-feedant effect or growth inhibition) at 200 ppm [4] | percent control (mortality, anti-feedant effect or growth inhibition) at 200 ppm [1] | percent control (mortality or growth inhibition) at 200 ppm [2] | percent control (mortality or growth inhibition) at 200 ppm [3] | percent control (mortality or growth inhibition) at 200 ppm ([6]; in Glycine max)

CC(c1ncnn1-c1ncccn1)N(CC1CC1)C(=O)c1cc(Br)cc(C(F)(F)F)c1 (stereo not shown) [Compound 19]
≥ 80%: percent control (mortality, anti-feedant effect or growth inhibition) at 200 ppm [1, 11] | mortality at 500 ppm [5] | percent control (mortality or growth inhibition) at 200 ppm [2, 12] | percent control (mortality or growth inhibition) at 200 ppm [3, 13] | percent control (mortality or growth inhibition) at 200 ppm [6, 15] | mortality at 12.5 ppm [7]

CC(c1ncnn1-c1ncccn1)N(CC1CC1)C(=O)c1cc(Cl)cc(C(F)(F)F)c1 (stereo not shown) [Compound 23]
≥ 80%: percent control (mortality, anti-feedant effect or growth inhibition) at 200 ppm [1, 11] | mortality at 500 ppm [5] | percent control (mortality or growth inhibition) at 200 ppm [2, 12] | percent control (mortality or growth inhibition) at 200 ppm [3, 13] | percent control (mortality, anti-feedant effect or growth inhibition) at 12.5 ppm [8] | mortality at 12.5 ppm [7]

COc1cnc(-n2ncnc2C(C)N(CC2CC2)C(=O)c2cc(C(F)(F)F)cc(C(F)(F)F)c2)nc1 (stereo not shown) [Compound 24]
≥ 80%: percent control (mortality or growth inhibition) at 200 ppm [2, 12] | percent control (mortality or growth inhibition) at 200 ppm [3, 13]

CC(c1ncnn1-c1ncccn1)N(CC1CC1)C(=O)c1cccc(C#N)c1 (stereo not shown) [Compound 25]
≥ 80%: percent control (mortality or growth inhibition) at 200 ppm [3, 13]

CC(c1ncnn1-c1ncccn1)N(CC1CC1)C(=O)c1cc(C(F)(F)F)nc(C(F)(F)F)c1 (stereo not shown) [Compound 41]
≥ 80%: percent control (mortality, anti-feedant effect or growth inhibition) at 200 ppm [4, 14] | percent control (mortality, anti-feedant effect or growth inhibition) at 200 ppm [1, 11] | mortality at 500 ppm [5] | percent control (mortality or growth inhibition) at 200 ppm [2, 12] | percent control (mortality or growth inhibition) at 200 ppm [3, 13] | percent control (mortality or growth inhibition) at 200 ppm [6, 15] | mortality at 12.5 ppm [7]

CC(c1ncnn1-c1ncccn1)N(CC1CC1)C(=O)c1cc(C#N)cc(C(F)(F)F)c1 (stereo not shown) [Compound 42]
≥ 80%: percent control (mortality, anti-feedant effect or growth inhibition) at 200 ppm [4, 14] | mortality at 24 ppm [9] | percent control (mortality, anti-feedant effect or growth inhibition) at 200 ppm [1, 11] | mortality at 500 ppm [5] | percent control (mortality or growth inhibition) at 200 ppm [2, 12] | percent control (mortality or growth inhibition) at 200 ppm [3, 13] | percent control (mortality or growth inhibition) at 200 ppm [6, 15] | mortality at 12.5 ppm [7]

CC(c1ncnn1-c1ncccn1)N(CC1CC1)C(=O)c1cncc(C(F)(F)F)c1 (stereo not shown) [Compound 47]
≥ 80%: mortality at 500 ppm [5] | percent control (mortality or growth inhibition) at 200 ppm [3, 13] | percent control (mortality or growth inhibition) at 200 ppm [6, 15]

CC(c1ncnn1-c1ncccn1)N(CCCF)C(=O)c1cc(C(F)(F)F)cc(C(F)(F)F)c1 (stereo not shown) [Compound 54]
≥ 80%: percent control (mortality, anti-feedant effect or growth inhibition) at 200 ppm [1, 11] | mortality at 200 ppm [10] | percent control (mortality or growth inhibition) at 200 ppm [2, 12] | percent control (mortality or growth inhibition) at 200 ppm [3, 13] | mortality at 12.5 ppm [7]

CC(c1ncnn1-c1ncccn1)N(CCC(F)(F)F)C(=O)c1cc(C(F)(F)F)cc(C(F)(F)F)c1 (stereo not shown) [Compound 55]
≥ 80%: percent control (mortality, anti-feedant effect or growth inhibition) at 200 ppm [4, 14] | percent control (mortality, anti-feedant effect or growth inhibition) at 200 ppm [1, 11] | mortality at 500 ppm [5] | mortality at 200 ppm [10] | percent control (mortality or growth inhibition) at 200 ppm [2, 12] | percent control (mortality or growth inhibition) at 200 ppm [3, 13] | percent control (mortality, anti-feedant effect or growth inhibition) at 12.5 ppm [8] | percent control (mortality or growth inhibition) at 200 ppm [6, 15] | mortality at 12.5 ppm [7]

CC(c1ncnn1-c1ncccn1)N(CCF)C(=O)c1cc(C(F)(F)F)cc(C(F)(F)F)c1 (stereo not shown) [Compound 56]
≥ 80%: mortality at 24 ppm [9] | percent control (mortality, anti-feedant effect or growth inhibition) at 200 ppm [1, 11] | mortality at 500 ppm [5] | mortality at 200 ppm [10] | percent control (mortality or growth inhibition) at 200 ppm [2, 12] | percent control (mortality or growth inhibition) at 200 ppm [3, 13] | percent control (mortality, anti-feedant effect or growth inhibition) at 12.5 ppm [8] | percent control (mortality or growth inhibition) at 200 ppm [6, 15] | mortality at 12.5 ppm [7]

CC(c1ncnn1-c1ccccn1)N(CC1COC1)C(=O)c1cc(C(F)(F)F)cc(C(F)(F)F)c1 (stereo not shown) [Compound 62]
≥ 80%: percent control (mortality or growth inhibition) at 200 ppm [3, 13]
